From PubChem BioAssay (NCI)
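Compound exposure: 48 hours, 5 concentrations, 96-well plates. The concentration for full growth arrest is given as TGI.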

Experiments:
Assay in all cases: NCI tumour cell line growth inhibition, 48 h
[1] = test system: 786-0 renal
[2] = test system: A498 renal
[3] = test system: A549 NSCLC
[4] = test system: ACHN renal
[5] = test system: BT-549 breast
[6] = test system: CAKI-1 renal
[7] = test system: CCRF-CEM leukemia
[8] = test system: COLO 205 colon
[9] = test system: DU-145 prostate
[10] = test system: EKVX NSCLC
[11] = test system: HCC-2998 colon
[12] = test system: HCT-116 colon
[13] = test system: HCT-15 colon
[14] = test system: HL-60(TB) leukemia
[15] = test system: HOP-62 NSCLC
[16] = test system: HOP-92 NSCLC
[17] = test system: HT29 colon
[18] = test system: IGROV1 ovarian
[19] = test system: K-562 leukemia
[20] = test system: KM12 colon
[21] = test system: M14 melanoma
[22] = test system: MALME-3M melanoma
[23] = test system: MCF7 breast
[24] = test system: MDA-MB-231 breast
[25] = test system: MDA-MB-435
[26] = test system: MDA-N
[27] = test system: MOLT-4 leukemia
[28] = test system: NCI-H226 lung
[29] = test system: NCI-H460 lung
[30] = test system: NCI/ADR-RES ovarian
[31] = test system: OVCAR-3 ovarian
[32] = test system: OVCAR-4 ovarian
[33] = test system: OVCAR-5 ovarian
[34] = test system: OVCAR-8 ovarian
[35] = test system: PC-3 prostate
[36] = test system: RPMI-8226 leukemia
[37] = test system: RXF 393 renal
[38] = test system: SF-268 CNS
[39] = test system: SF-295 CNS
[40] = test system: SF-539 CNS
[41] = test system: SK-MEL-2 melanoma
[42] = test system: SK-MEL-28 melanoma
[43] = test system: SK-MEL-5 melanoma
[44] = test system: SK-OV-3 ovarian
[45] = test system: SN12C renal
[46] = test system: SR leukemia
[47] = test system: T-47D breast
[48] = test system: TK-10 renal
[49] = test system: U251 CNS
[50] = test system: UACC-62 melanoma
[51] = test system: UO-31 renal
[52] = test system: LOX IMVI melanoma
[53] = test system: NCI-H23 lung
[54] = test system: SNB-19 CNS
[55] = test system: SW-620 colon
[56] = test system: UACC-257 melanoma

Question: What does the source list for `Cn1c(=O)c2[nH]c(-n3nc(-c4ccccc4)cc3N)nc2n(C)c1=O`?
Answer: TGI [1]: > 100 µM; TGI [2]: 27.9 µM; TGI [3]: > 100 µM; TGI [4]: 37 µM; TGI [5]: > 100 µM; TGI [6]: 15 µM; TGI [7]: > 100 µM; TGI [8]: 88.7 µM; TGI [9]: 45 µM; TGI [10]: > 100 µM; TGI [11]: > 100 µM; TGI [12]: > 100 µM; TGI [13]: > 100 µM; TGI [14]: 61.2 µM; TGI [15]: > 100 µM; TGI [16]: 74.9 µM; TGI [17]: > 100 µM; TGI [18]: 37.1 µM; TGI [19]: > 100 µM; TGI [20]: > 100 µM; TGI [21]: 50 µM; TGI [22]: 47 µM; TGI [23]: > 100 µM; TGI [24]: > 100 µM; TGI [25]: > 100 µM; TGI [26]: > 100 µM; TGI [27]: > 100 µM; TGI [28]: 33.7 µM; TGI [29]: > 100 µM; TGI [30]: 14.2 µM; TGI [31]: > 100 µM; TGI [32]: 93.5 µM; TGI [33]: > 100 µM; TGI [34]: 97.7 µM; TGI [35]: > 100 µM; TGI [36]: > 100 µM; TGI [37]: > 100 µM; TGI [38]: > 100 µM; TGI [39]: > 100 µM; TGI [40]: 27.1 µM; TGI [41]: 47.2 µM; TGI [42]: 57.3 µM; TGI [43]: 61.9 µM; TGI [44]: 20.4 µM; TGI [45]: > 100 µM; TGI [46]: > 100 µM; TGI [47]: 65.9 µM; TGI [48]: > 100 µM; TGI [49]: > 100 µM; TGI [50]: 27 µM; TGI [51]: > 100 µM

Question: For `c1ccc(-c2nc3ccccc3n3nnnc23)cc1`, which TGI [1] is on record?
Answer: The TGI was over 100 µM.

Question: And the TGI [2]?
Answer: The TGI was over 100 µM.

Question: And the TGI [3]?
Answer: Its TGI is over 100 µM.

Question: What about the TGI [4] of the same compound?
Answer: The TGI was over 100 µM.

Question: And the TGI [5]?
Answer: The TGI was over 100 µM.

Question: And the TGI [7]?
Answer: The TGI was over 100 µM.

Question: And the TGI [8]?
Answer: Its TGI is over 100 µM.

Question: What about the TGI [9] of the same compound?
Answer: The TGI was over 100 µM.

Question: What about the TGI [10] of the same compound?
Answer: The TGI was over 100 µM.

Question: What about the TGI [11] of the same compound?
Answer: Its TGI is over 100 µM.

Question: And the TGI [12]?
Answer: The TGI was over 100 µM.

Question: And the TGI [13]?
Answer: Its TGI is over 100 µM.

Question: What about the TGI [14] of the same compound?
Answer: The TGI was over 100 µM.

Question: What about the TGI [15] of the same compound?
Answer: Its TGI is over 100 µM.

Question: What about the TGI [16] of the same compound?
Answer: The TGI was over 100 µM.

Question: What about the TGI [17] of the same compound?
Answer: Its TGI is over 100 µM.

Question: What about the TGI [18] of the same compound?
Answer: Its TGI is over 100 µM.

Question: And the TGI [19]?
Answer: Its TGI is over 100 µM.

Question: What about the TGI [20] of the same compound?
Answer: The TGI was over 100 µM.

Question: What about the TGI [52] of the same compound?
Answer: The TGI was over 100 µM.

Question: What about the TGI [21] of the same compound?
Answer: Its TGI is over 100 µM.

Question: And the TGI [22]?
Answer: The TGI was over 100 µM.

Question: What about the TGI [23] of the same compound?
Answer: Its TGI is over 100 µM.

Question: What about the TGI [24] of the same compound?
Answer: Its TGI is over 100 µM.

Question: What about the TGI [25] of the same compound?
Answer: The TGI was over 100 µM.

Question: What about the TGI [26] of the same compound?
Answer: The TGI was over 100 µM.

Question: What about the TGI [27] of the same compound?
Answer: Its TGI is over 100 µM.

Question: And the TGI [28]?
Answer: The TGI was over 100 µM.

Question: What about the TGI [53] of the same compound?
Answer: Its TGI is over 100 µM.

Question: And the TGI [29]?
Answer: Its TGI is over 100 µM.

Question: And the TGI [30]?
Answer: Its TGI is over 100 µM.

Question: And the TGI [31]?
Answer: Its TGI is over 100 µM.

Question: What about the TGI [32] of the same compound?
Answer: The TGI was over 100 µM.

Question: What about the TGI [33] of the same compound?
Answer: Its TGI is over 100 µM.

Question: What about the TGI [35] of the same compound?
Answer: Its TGI is over 100 µM.

Question: What about the TGI [36] of the same compound?
Answer: Its TGI is over 100 µM.

Question: And the TGI [37]?
Answer: The TGI was over 100 µM.

Question: What about the TGI [38] of the same compound?
Answer: The TGI was over 100 µM.

Question: And the TGI [40]?
Answer: Its TGI is over 100 µM.

Question: What about the TGI [41] of the same compound?
Answer: The TGI was over 100 µM.

Question: And the TGI [42]?
Answer: The TGI was over 100 µM.

Question: What about the TGI [43] of the same compound?
Answer: Its TGI is over 100 µM.

Question: What about the TGI [44] of the same compound?
Answer: The TGI was over 100 µM.

Question: What about the TGI [45] of the same compound?
Answer: Its TGI is over 100 µM.

Question: What about the TGI [54] of the same compound?
Answer: The TGI was over 100 µM.

Question: What about the TGI [46] of the same compound?
Answer: Its TGI is over 100 µM.

Question: What about the TGI [55] of the same compound?
Answer: Its TGI is over 100 µM.

Question: What about the TGI [47] of the same compound?
Answer: The TGI was 97.3 µM.

Question: What about the TGI [48] of the same compound?
Answer: Its TGI is over 100 µM.

Question: What about the TGI [49] of the same compound?
Answer: Its TGI is over 100 µM.

Question: What about the TGI [56] of the same compound?
Answer: The TGI was over 100 µM.

Question: And the TGI [50]?
Answer: Its TGI is over 100 µM.

Question: And the TGI [51]?
Answer: Its TGI is 1.57 µM.
